Results as given in article PMC11784652, “Two complementing in vivo selection systems based on CCA-trimming exonucleases as a tool to monitor, select and evaluate enzymatic features of tRNA nucleotidyltransferases” (RNA Biology, 2025).
Positions count from the first letter of the chain named.

Assays:
[1] = target: T1, HsaCCA (human CCA-adding enzyme, tRNA nucleotidyltransferase) (Homo sapiens, UniProt Q96Q11); assay: in vitro nucleotide incorporation on […]-labelled yeast tRNA-Phe-CC; format: biochemical; details: 1 mM ATP, A-addition, co-substrate tRNA-Phe-CC, 37 °C; no binding to apoenzyme detected by DRaCALA
T1 construct: gene TRNT1; N-terminal His-tag, pET28a(+), expressed in E. coli BL21(DE3) delta-cca
T1 sequence (Q96Q11 30-434): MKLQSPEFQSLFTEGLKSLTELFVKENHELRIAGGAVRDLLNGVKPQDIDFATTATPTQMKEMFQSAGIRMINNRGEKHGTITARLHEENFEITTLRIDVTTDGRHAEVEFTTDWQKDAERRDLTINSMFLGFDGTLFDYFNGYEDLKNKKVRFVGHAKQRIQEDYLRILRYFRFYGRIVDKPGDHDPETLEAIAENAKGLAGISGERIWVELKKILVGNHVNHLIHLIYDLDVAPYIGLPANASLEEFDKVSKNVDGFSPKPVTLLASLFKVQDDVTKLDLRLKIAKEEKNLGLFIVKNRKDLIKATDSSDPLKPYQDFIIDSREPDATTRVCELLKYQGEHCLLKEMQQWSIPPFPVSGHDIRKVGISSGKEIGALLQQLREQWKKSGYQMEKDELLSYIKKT

[2] = target: T1, HsaCCA (human CCA-adding enzyme, tRNA nucleotidyltransferase); assay: DRaCALA (nitrocellulose radioligand spot assay); format: binding; details: 4 °C, 10 min, HEPES/KOH pH 7.6, 30 mM KCl, 6 mM MgCl2, no tRNA; 1 nM labelled compound (α-32P)
[3] = target: T2, HsaCCA (human CCA-adding enzyme, tRNA nucleotidyltransferase) (Homo sapiens, UniProt Q96Q11, E193G); assay: DRaCALA (nitrocellulose radioligand spot assay); format: binding; details: 4 °C, 10 min, HEPES/KOH pH 7.6, 30 mM KCl, 6 mM MgCl2, no tRNA; 1 nM labelled compound (α-32P)
T2 construct: gene TRNT1; N-terminal His-tag, pET28a(+), expressed in E. coli BL21(DE3) delta-cca
T2 sequence (Q96Q11 30-434 E193G): T1 sequence (Q96Q11 30-434) with E164G

Compound	in vitro nucleotide incorporation on 32P-labelled yeast tRNA-Phe-CC [1]	DRaCALA (nitrocellulose radioligand spot assay) [2]	DRaCALA (nitrocellulose radioligand spot assay) [3]
Nc1ncnc2c1ncn2[C@@H]1O[C@H](COP(=O)(O)OP(=O)(O)OP(=O)(O)O)[C@@H](O)[C@H]1O [ATP]	Both enzyme versions readily add the terminal A if NTPs (N) or only ATP	–	–
Nc1ccn([C@@H]2O[C@H](COP(=O)(O)OP(=O)(O)OP(=O)(O)O)[C@@H](O)[C@H]2O)c(=O)n1 [CTP]	–	Both HsaCCA wt and HsaCCA E164G showed robust interaction with CTP	CTP binding of HsaCCA E164G seems to be less efficient compared to the wt enzyme
